According to the supplement of paper PMC10307832:

Legend:
Test in all cases: relative viability (nuclei count vs DMSO), 5 days (fraction); higher = more cells survive
[1] = compound: CC1=CC(=CC=C1)NC2=NC(=CS2)C3=CC=NC=C3 + Nc1nc2[nH]cc(CCc3ccc(C(=O)N[C@@H](CCC(=O)O)C(=O)O)cc3)c2c(=O)[nH]1 [Pemetrexed] (partner 0.2 µM)
In short: (§1)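 Lung cancer cell lines were pin-tool dosed in 1536-well plates on the day after seeding, with either a lone drug or a fixed anchor-drug dose plus five library-drug doses (not always all listed) in √10 steps. Nuclei were counted on 4× images after 5 days. Relative viability is the ratio of treated-well to vehicle-well nuclei counts, with each value a median of duplicate plates.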

[2] = compound: Cc1ccc(NC(=O)c2ccc(CN3CCN(C)CC3)cc2)cc1Nc1nc(-c2cccnc2)cs1 [Masitinib] + N=C(N)NC(=N)NCCc1ccccc1 [Phenformin] (partner 250 µM)
In short: as §1

[3] = compound: CC1=CC(=CC=C1)NC2=NC(=CS2)C3=CC=NC=C3 + Cc1cc(Nc2cc(N3CCN(C)CC3)nc(Sc3ccc(NC(=O)C4CC4)cc3)n2)n[nH]1 [Tozasertib] (partner 0.1 µM)
In short: as §1

[4] = compound: CC1=CC(=CC=C1)NC2=NC(=CS2)C3=CC=NC=C3 + NC(=O)Nc1cc(-c2cccc(F)c2)sc1C(=O)N[C@H]1CCCNC1 [AZD7762] (partner 0.2 µM)
In short: as §1

Cell Line | relative viability ([1]; first compound 0.08 µM) | relative viability ([1]; first compound 0.253 µM) | relative viability ([1]; first compound 0.8 µM) | relative viability ([1]; first compound 2.53 µM) | relative viability ([1]; first compound 8 µM) | relative viability ([2]; first compound 0.01 µM) | relative viability ([2]; first compound 0.03162 µM) | relative viability ([2]; first compound 0.1 µM) | relative viability ([2]; first compound 0.3162 µM) | relative viability ([2]; first compound 1 µM) | relative viability ([3]; first compound 0.08 µM) | relative viability ([3]; first compound 0.253 µM) | relative viability ([3]; first compound 0.8 µM) | relative viability ([3]; first compound 2.53 µM) | relative viability ([3]; first compound 8 µM) | relative viability ([4]; first compound 0.08 µM) | relative viability ([4]; first compound 0.253 µM) | relative viability ([4]; first compound 0.8 µM) | relative viability ([4]; first compound 2.53 µM) | relative viability ([4]; first compound 8 µM)
NCI-H1563 | 0.744 | 0.739 | 0.717 | 0.742 | 0.881 | 0.631 | 0.701 | 0.689 | 0.684 | 0.643 | – | – | – | – | – | – | – | – | – | –
NCI-H1623 | – | – | – | – | – | 0.509 | 0.494 | 0.564 | 0.52 | 0.533 | 0.393 | 0.403 | 0.377 | 0.385 | 0.363 | – | – | – | – | –
NCI-H1648 | 0.639 | 0.626 | 0.749 | 0.673 | 0.633 | – | – | – | – | – | 0.387 | 0.315 | 0.46 | 0.384 | 0.294 | 0.662 | 0.568 | 0.676 | 0.469 | 0.469
NCI-H1650 | 0.341 | 0.358 | 0.399 | 0.346 | 0.323 | 0.419 | 0.334 | 0.447 | 0.371 | 0.362 | 0.531 | 0.543 | 0.461 | 0.363 | 0.269 | – | – | – | – | –
NCI-H1703 | – | – | – | – | – | – | – | – | – | – | – | – | – | – | – | 0.121 | 0.127 | 0.14 | 0.148 | 0.112
NCI-H1792 | 0.453 | 0.682 | 0.651 | 0.67 | 0.784 | 0.216 | 0.258 | 0.233 | 0.363 | 0.191 | – | – | – | – | – | 0.459 | 0.529 | 0.628 | 0.755 | 0.524
NCI-H2009 | 0.938 | 1.05 | 1 | 1 | 0.914 | 0.434 | 0.48 | 0.463 | 0.427 | 0.381 | 0.737 | 0.699 | 0.715 | 0.823 | 0.704 | – | – | – | – | –
NCI-H2023 | 0.211 | 0.18 | 0.274 | 0.195 | 0.187 | 0.409 | 0.371 | 0.397 | 0.429 | 0.317 | 0.332 | 0.332 | 0.321 | 0.228 | 0.116 | – | – | – | – | –
NCI-H2228 | 0.38 | 0.346 | 0.323 | 0.343 | 0.208 | 0.347 | 0.302 | 0.335 | 0.398 | 0.215 | 0.24 | 0.198 | 0.175 | 0.162 | 0.157 | – | – | – | – | –
SK-LU-1 | 0.906 | 1.03 | 0.691 | 0.997 | 0.937 | 0.488 | 0.466 | 0.55 | 0.687 | 0.497 | 0.301 | 0.293 | – | 0.32 | 0.302 | – | – | – | – | –
SK-MES-1 | 0.757 | 0.762 | 0.787 | 0.822 | 0.862 | 0.657 | 0.691 | 0.686 | 0.659 | 0.512 | 0.708 | 0.679 | 0.722 | 0.737 | 0.718 | – | – | – | – | –
SW 1573 | 0.835 | 0.746 | 0.787 | 0.763 | 0.763 | 0.351 | 0.344 | 0.341 | 0.354 | 0.383 | 0.184 | 0.168 | 0.279 | 0.154 | 0.185 | – | – | – | – | –
